Assay results from US20210395313A1, “PEPTIDE PAC1 ANTAGONISTS” (AMGEN INC., priority 2017, published 2021).
Where a SMILES comes first, the peptide text is derived from it. Bridges are numbered along the chain shown (N, C = ends). Where no end group is shown, it is not given here.

Experiments:
rat PAC1 receptor = biological target: T1, rat PAC1 receptor (Rattus norvegicus, UniProt P32215); assay: LANCE Ultra cAMP accumulation antagonist assay in RG-2 cells; format: cell-based;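 further: RG-2 rat glioma cells endogenously expressing PAC1, test peptide preincubated 30 min, then PAC1 agonist added at its EC80 for 15 min, cAMP accumulation read by LANCE Ultra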
T1 construct: SHSY-5Y (human neuroblastoma cell line) and RG-2 (rat glioma cell line) cells endogenously express human and rat PAC1 receptors, respectively; endogenous in cells; host or cells: RG-2 rat glioma cells
T1 sequence (P32215 20-523): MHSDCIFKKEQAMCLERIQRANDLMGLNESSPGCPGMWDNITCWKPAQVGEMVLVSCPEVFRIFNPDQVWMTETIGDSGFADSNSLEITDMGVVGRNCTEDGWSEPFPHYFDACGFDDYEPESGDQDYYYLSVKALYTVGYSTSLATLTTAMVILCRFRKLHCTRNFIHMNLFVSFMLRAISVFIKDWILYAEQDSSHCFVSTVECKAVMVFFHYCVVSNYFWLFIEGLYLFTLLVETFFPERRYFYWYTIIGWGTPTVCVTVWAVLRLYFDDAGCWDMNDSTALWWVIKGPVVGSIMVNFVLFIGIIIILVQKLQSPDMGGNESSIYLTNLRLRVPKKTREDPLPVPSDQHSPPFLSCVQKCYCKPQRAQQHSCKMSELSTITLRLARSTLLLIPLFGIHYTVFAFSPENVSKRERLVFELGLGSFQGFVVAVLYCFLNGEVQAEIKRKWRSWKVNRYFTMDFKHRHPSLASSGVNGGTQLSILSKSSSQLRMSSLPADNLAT
Experimental: In order to determine the potency of peptide antagonists at the PAC1 receptor, functional cAMP accumulation assays using LANCE Ultra cAMP assay kit to measure the agonist and antagonist activity of PAC1 peptides were used. SHSY-5Y (human neuroblastoma cell line) and RG-2 (rat glioma cell line) cells endogenously express human and rat PAC1 receptors, respectively. Agonist activity of PAC1 peptides was tested by incubating with SHSY-5Y at 2,000 cells per well or RG-2 at 5,000 cells per well for 15 minutes at room temperature. PAC1 receptor agonist PACAP38 or maxadilan was included as a positive control. The reaction was stopped by adding detection mixture, europium (Eu) chelate-labeled cAMP tracer and cAMP-specific monoclonal antibodies labeled with the ULight™ dye, to all wells followed by a 60-minute incubation at room temperature. The assay plates were then read on an EnVision instrument at an emission wavelength of 665 and 615 nm and data were analyzed using Genedata Screener or GraphPad Prism software. A similar procedure was used in the antagonist assays by using a fixed concentration of PAC1 agonist. The concentrations of agonists were chosen based on their ECK) values at PAC1 receptors in SHSY-5Y or RG-2 cells. SHSY-5Y or RG-2 cells were added into 96-well half-area white plates. Serially diluted PAC1 peptides at ten concentrations were added and incubated for 30 minutes at room temperature. PAC1 agonist at EC80 concentration was then added and further incubated for 15 minutes at room temperature. The reaction was stopped by adding detection mixture to all wells followed by a 60-minute incubation at room temperature. The assay plates were read and analyzed the same way as that of agonist assay. Cells, agonists, and PAC1 peptides were prepared in freshly made assay buffer (F-12, 0.5 mM IBMX, 0.1 or 0.4% BSA (pH 7.4)). Detection mixture was made by mixing a 1/50 dilution of the Eu-cAMP tracer stock solution in cAMP Detection Buffer and a 1/150 dilution of the ULight-anti-cAMP stock solution in cAMP Detection Buffer. Europium (Eu) chelate-labeled cAMP tracer, cAMP-specific monoclonal antibodies labeled with the ULight™ dye, BSA, and detection buffer were provided in LANCE Ultra cAMP Kit from PerkinElmer

human PAC1 receptor = biological target: T2, human PAC1 receptor (Homo sapiens, UniProt P41586); assay: LANCE Ultra cAMP accumulation antagonist assay in SHSY-5Y cells; format: cell-based;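 further: inhibition of cAMP accumulation evoked by PAC1 agonist at its EC80 in SHSY-5Y cells endogenously expressing receptor, 30 min preincubation then 15 min agonist, TR-FRET readout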
T2 construct: SHSY-5Y (human neuroblastoma cell line) and RG-2 (rat glioma cell line) cells endogenously express human and rat PAC1 receptors, respectively; endogenous in cells; host or cells: SHSY-5Y human neuroblastoma cells
T2 sequence (P41586 21-468): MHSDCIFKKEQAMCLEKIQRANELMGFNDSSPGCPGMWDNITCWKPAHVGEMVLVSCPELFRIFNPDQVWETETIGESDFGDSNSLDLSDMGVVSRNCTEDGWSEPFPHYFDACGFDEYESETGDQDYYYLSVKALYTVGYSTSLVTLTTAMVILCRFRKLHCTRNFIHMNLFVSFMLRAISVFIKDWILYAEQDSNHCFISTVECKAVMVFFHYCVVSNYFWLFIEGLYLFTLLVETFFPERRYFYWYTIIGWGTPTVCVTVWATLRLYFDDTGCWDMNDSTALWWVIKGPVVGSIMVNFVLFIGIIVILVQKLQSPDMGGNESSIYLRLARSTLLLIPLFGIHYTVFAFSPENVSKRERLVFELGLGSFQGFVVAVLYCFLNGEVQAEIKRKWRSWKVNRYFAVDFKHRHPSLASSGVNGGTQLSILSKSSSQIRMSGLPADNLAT

| Compound | IC50 (rat PAC1 receptor) [nM] | IC50 (human PAC1 receptor) [nM] |
| --- | --- | --- |
| CC[C@H](C)[C@H](NC(=O)[C@H](C)NC(=O)[C@H](CCCCN)NC(=O)[C@H](CCCNC(=N)N)NC(=O)[C@H](Cc1ccccc1)NC(=O)[C@H](CCC(N)=O)NC(=O)[C@@H]1CSSC[C@H](N)C(=O)N[C@@H](CC(=O)O)C(=O)N[C@@H](C)C(=O)N[C@@H]([C@@H](C)O)C(=O)N1)C(=O)N[C@@H](CC(=O)O)C(=O)N[C@@H](CC(=O)O)C(=O)N[C@H]1CSSC[C@@H](C(=O)N[C@@H](CCSC)C(=O)N[C@@H](CCCCN)C(=O)N[C@@H](CCC(N)=O)C(=O)N[C@@H](CCCCN)C(=O)N[C@@H](CCCCN)C(=O)N[C@@H](CCCCN)C(=O)N[C@@H](CCC(=O)O)C(=O)N[C@@H](Cc2c[nH]c3ccccc23)C(=O)N[C@@H](CCCCN)C(=O)N[C@@H](C)C(=O)NCC(=O)N[C@@H](Cc2c[nH]cn2)C(=O)O)NC(=O)[C@H](C)NC(=O)[C@H](CCCCN)NC(=O)[C@H](Cc2ccccc2)NC(=O)[C@H](C(C)C)NC(=O)[C@H](CO)NC(=O)[C@H](CO)NC(=O)[C@H](Cc2c[nH]cn2)NC(=O)[C@H](Cc2c[nH]c3ccccc23)NC(=O)[C@H](CO)NC(=O)[C@H](CCCNC(=N)N)NC(=O)[C@H](Cc2ccc(O)cc2)NC(=O)[C@H](Cc2ccc(O)cc2)NC1=O [compound 72] (H-CDATCQFRKAIDDCYYRSWHSSVFKACMKQKKKEWKAGH-OH; disulfide 1-5, 14-27) | 0.01 to 1 | 0.01 to 1 |
| CDATCQFRKAIDDCARQAHHSNVPGSVWKACMKQKKKEWKAGH (disulfide 1-5, 14-31) [SEQ ID NO 105] | 0.01 to 1 | 0.01 to 1 |
| CDATCQFRKAIDDCWVIAWHSNVPGSVFKACMKQKKKEFKAG-NH2 (disulfide 1-5, 14-31) [compound 130] | < 0.01 | 0.01 to 1 |
| CDATCQFRKAIDDCWMLSWHANVPGSVFKACMKQKKKEFKAGH (disulfide 1-5, 14-31) [compound 111] | 0.01 to 1 | 0.01 to 1 |
| CDATCQFRKAIDDCHLLAWHSNVPGSVFKACMKQKKKEFKAG-NH2 (disulfide 1-5, 14-31) [compound 76] | 0.01 to 1 | 0.01 to 1 |
| CDATCQFRKAIDDCDRQAYHSNVPGSVFKACMKQKKKEWKAG-NH2 (disulfide 1-5, 14-31) [compound 144] | 0.01 to 1 | 0.01 to 1 |
| CDATCQFRKAIDDCVRQAHHSNVPGSVFKACMKQKKKEWKAGH (disulfide 1-5, 14-31) [SEQ ID NO 156] | 0.01 to 1 | 0.01 to 1 |
| CC[C@H](C)[C@H](NC(=O)[C@H](C)NC(=O)[C@H](CCCCN)NC(=O)[C@H](CCCNC(=N)N)NC(=O)[C@H](Cc1ccccc1)NC(=O)[C@H](CCC(N)=O)NC(=O)[C@@H]1CSSC[C@H](N)C(=O)N[C@@H](CC(=O)O)C(=O)N[C@@H](C)C(=O)N[C@@H]([C@@H](C)O)C(=O)N1)C(=O)N[C@@H](CC(=O)O)C(=O)N[C@@H](CC(=O)O)C(=O)N[C@H]1CSSC[C@@H](C(=O)N[C@@H](CCSC)C(=O)N[C@@H](CCCCN)C(=O)N[C@@H](CCC(N)=O)C(=O)N[C@@H](CCCCN)C(=O)N[C@@H](CCCCN)C(=O)N[C@@H](CCCCN)C(=O)N[C@@H](CCC(=O)O)C(=O)N[C@@H](Cc2c[nH]c3ccccc23)C(=O)N[C@@H](CCCCN)C(=O)N[C@@H](C)C(=O)NCC(N)=O)NC(=O)[C@H](C)NC(=O)[C@H](CCCCN)NC(=O)[C@H](Cc2ccccc2)NC(=O)[C@H](CO)NC(=O)[C@H](CO)NC(=O)[C@H](Cc2c[nH]cn2)NC(=O)[C@H](Cc2ccc(O)cc2)NC(=O)[C@H](C)NC(=O)[C@H](CCC(N)=O)NC(=O)[C@H](CCCNC(=N)N)NC(=O)[C@H](C)NC1=O [compound 20] (H-CDATCQFRKAIDDCARQAYHSSFKACMKQKKKEWKAG-NH2; disulfide 1-5, 14-26) | 0.01 to 1 | 0.01 to 1 |
| CDATCQFRKAIDDCAKQAHHANVPGSVFKACMKQKKKEFKAG-NH2 (disulfide 1-5, 14-31) [compound 13] | 0.01 to 1 | 0.01 to 1 |
| CDATCQFRKAIDDCARQAHHSNVPGSVFKLCMKQKKKEWKAGH (disulfide 1-5, 14-31) [compound 23] | < 0.01 | 0.01 to 1 |
